Data reported in patent publication EP1099690A1, “MONOCYCLIC $g(b)-LACTAM COMPOUNDS AND CHYMASE INHIBITORS CONTAINING THE SAME” (SHIONOGI & CO., LTD., priority 1998, dated 2000).
pIC50: −log10 of the molar value.

What was measured:
IL-5 = assay: Cytokine production inhibitory activity, Concanavalin A stimulated mononuclear cells, ELISA: IL-5; format: cell-based; conditions: IL-5 in culture supernatant, human mononuclear cells, Concanavalin A 5 µg/ml, forty-eight hours
Method: (§1) After human blood obtained in heparinized tube was layered on the Filcoll - Hypaque mixed solution (density=1.114, mono-poly separation solution, Dainippon Pharmaceutical Co., Ltd.), it was centrifuged to prepare mononuclear cells. The obtained mononuclear cells were suspended in a medium (Macrophage-SFM:GIBCO) to adjust 2 X 10^6 cells/ml and cultivated in 48-well plates. Ten minutes later addition of the compound of the present invention, Concanavalin A (5 µg/ml) was added to stimulate cells. After forty-eight hours, IL-1β, IL-2, IL-4, IL-5, IL-6, TNF-α and IFNγ in the culture supernatant were quantified by ELISA method. The following kits were used for the quantification of these cytokines. • IL-1β: Quantikine(Trademark) Human IL-1β ELISA KIT (R&D system) • IL-2: Quantikine(Trademark) Human IL-2 ELISA KIT (R&D system) • IL-4: Quantikine(Trademark) Human IL-4 ELISA KIT (R&D system) • IL-5: Quantikine(Trademark) Human IL-5 ELISA KIT (R&D system) • IL-6: Quantikine(Trademark) Human IL-6 ELISA KIT (R&D system) • TNF-α: Quantikine(Trademark) Human TNF-α ELISA KIT (R&D system) • IFNγ: Quantikine(Trademark) Human IFNγ ELISA KIT (R&D system)

IL-4 = assay: Cytokine production inhibitory activity, Concanavalin A stimulated mononuclear cells, ELISA: IL-4; format: cell-based; conditions: IL-4 in culture supernatant, Concanavalin A 5 µg/ml, forty-eight hours
Method: as §1

IL-1β = assay: Cytokine production inhibitory activity, Concanavalin A stimulated mononuclear cells, ELISA: IL-1β; format: cell-based; conditions: IL-1β in culture supernatant, human mononuclear cells, Concanavalin A 5 µg/ml, forty-eight hours
Method: as §1

IL-6 = assay: Cytokine production inhibitory activity, Concanavalin A stimulated mononuclear cells, ELISA: IL-6; format: cell-based; conditions: IL-6 in culture supernatant, Concanavalin A 5 µg/ml, forty-eight hours
Method: as §1

human chymase = molecular target: T1, human chymase (Homo sapiens, UniProt P23946); assay: Chymase inhibitory activity (Suc-Ala-Ala-Pro-Phe-pNA substrate, absorption 405 nm); format: biochemical; conditions: purified human chymase, 30 minutes at 37 °C preincubation, substrate 0.5 mM
T1 sequence (P23946 22-247): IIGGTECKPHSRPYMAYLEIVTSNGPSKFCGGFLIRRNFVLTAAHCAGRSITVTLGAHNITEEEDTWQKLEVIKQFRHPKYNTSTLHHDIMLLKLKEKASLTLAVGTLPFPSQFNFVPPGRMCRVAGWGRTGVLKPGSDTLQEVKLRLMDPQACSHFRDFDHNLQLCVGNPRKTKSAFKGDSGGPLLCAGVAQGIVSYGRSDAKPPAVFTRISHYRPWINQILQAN
Method: Compound (I) was dissolved in dimethylsulfoxide (DMSO) at 10^-2 M. Concentration of DMSO for activity measurement was 1 %.
Compound (I) dissolved in DMSO and purified human chymase (Takai et al., Clinica Chimica Acta 265, 1997, 13-20) were added to a buffer (0.1M Tris-HCl, 1.8M NaCl pH8.0). After the mixture was treated for 30 minutes at 37 °C, Suc-Ala-Ala-Pro-Phe-pNA (BACHEM Feinchemikalien AG) was added at 0.5 mM as a substrate and the mixture was enzymatically reacted at 37 °C.
After the reaction, the absorption intensity (405 nm) of the solution was measured to calculate the inhibitory rate.

IFNγ = assay: Cytokine production inhibitory activity, Concanavalin A stimulated mononuclear cells, ELISA: IFNγ; format: cell-based; conditions: IFNγ in culture supernatant, Concanavalin A 5 µg/ml, forty-eight hours
Method: as §1

TNF-α = assay: Cytokine production inhibitory activity, Concanavalin A stimulated mononuclear cells, ELISA: TNF-α; format: cell-based; conditions: TNF-α in culture supernatant, human mononuclear cells, Concanavalin A 5 µg/ml, forty-eight hours
Method: as §1

IL-2 = assay: Cytokine production inhibitory activity, Concanavalin A stimulated mononuclear cells, ELISA: IL-2; format: cell-based; conditions: IL-2 in culture supernatant, Concanavalin A 5 µg/ml, forty-eight hours
Method: as §1

Cathepsin G = molecular target: T2, Cathepsin G (Homo sapiens, UniProt P08311); assay: Inhibitory activity on other serine proteases: Cathepsin G (sucAAPFpNA); format: biochemical; conditions: for pIC50: Cathepsin G; for fold vs chymase: Cathepsin G IC50 compared with IC50 value of chymase
T2 construct: human purulent sputum cathepsin (1.7 µg/ml in 1 mM HCl, 20 mM CaCl2, CALBIOCHEM); purchased CALBIOCHEM; host or cells: human purulent sputum
T2 sequence (P08311 21-244): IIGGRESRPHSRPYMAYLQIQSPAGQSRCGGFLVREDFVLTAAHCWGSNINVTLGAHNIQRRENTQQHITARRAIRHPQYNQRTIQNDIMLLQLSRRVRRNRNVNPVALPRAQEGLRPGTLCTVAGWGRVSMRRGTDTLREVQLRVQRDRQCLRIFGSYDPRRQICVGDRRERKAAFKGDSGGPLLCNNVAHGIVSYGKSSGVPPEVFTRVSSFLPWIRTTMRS
Method: The mixture of 10 µl of human purulent sputum cathepsin (1.7 µg/ml in 1 mM HCl, 20 mM CaCl2, CALBIOCHEM), 80 µl of buffer (50mM Tris-HCl, pH 7.5, 5.2 mM CaCl2) and 1 µl of the compound of the present invention (in DMSO) was incubated for 20 minutes at room temperature and for 10 minutes at 37 °C. The resultant mixture was reacted with 10 µl of a substrate (5 mM sucAAPFpNA in DMSO, BACHEM Feinchemikalien AG) for about 60 minutes at 37 °C and the absorption intensity (405 nm) was measured.
(§2) The IC50 values of each serine protease are calculated and compared with IC50 value of chymase.

[1] = molecular target: T3, human neutrophils elastase (Homo sapiens, UniProt P08246); assay: Inhibitory activity on other serine proteases: Elastase (sucAAVpNA); format: biochemical; conditions: for pIC50: elastase; for fold vs chymase: elastase IC50 compared with IC50 value of chymase
T3 construct: human neutrophils elastase (0.02 mg/ml in 50 mM Tris-HCl, pH 7.0, 2 mM CaCl2, Athens research and technology); purchased Athens research and technology; host or cells: human neutrophils
T3 sequence (P08246 30-267): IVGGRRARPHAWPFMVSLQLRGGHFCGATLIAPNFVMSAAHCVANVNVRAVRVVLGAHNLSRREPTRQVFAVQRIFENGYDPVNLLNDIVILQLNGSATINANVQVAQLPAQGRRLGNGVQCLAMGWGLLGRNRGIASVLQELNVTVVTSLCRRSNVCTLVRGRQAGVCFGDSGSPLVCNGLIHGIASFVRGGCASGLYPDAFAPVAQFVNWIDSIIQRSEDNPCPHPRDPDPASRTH
Method: The mixture of 10 µl of human neutrophils elastase (0.02 mg/ml in 50 mM Tris-HCl, pH 7.0, 2 mM CaCl2, Athens research and technology), 80 µl of buffer (50mM Tris-HCl, pH 8.0, 2 mM CaCl2) and 1 µl of the compound of the present invention (in DMSO) was incubated for 20 minutes at room temperature and for 10 minutes at 37 °C. The resultant mixture was reacted with 10 µl of a substrate (5 mM sucAAVpNA (BACHEM Feinchemikalien AG) in 50 % DMSO) for about 30 minutes at 37 °C and the absorption intensity (405 nm) was measured.
as §2

bovine pancreas trypsin = molecular target: T4, bovine pancreas trypsin (Bos taurus, UniProt P00760); assay: Inhibitory activity on other serine proteases: Trypsin (sucAAPRpNA); format: biochemical; conditions: for pIC50: trypsin; for fold vs chymase: trypsin IC50 compared with IC50 value of chymase
T4 construct: bovine pancreas trypsin (1.5 µg/ml in 1 mM HCl, 20 mM CaCl2, SIGMA); purchased SIGMA; host or cells: bovine pancreas
T4 sequence (P00760 24-246): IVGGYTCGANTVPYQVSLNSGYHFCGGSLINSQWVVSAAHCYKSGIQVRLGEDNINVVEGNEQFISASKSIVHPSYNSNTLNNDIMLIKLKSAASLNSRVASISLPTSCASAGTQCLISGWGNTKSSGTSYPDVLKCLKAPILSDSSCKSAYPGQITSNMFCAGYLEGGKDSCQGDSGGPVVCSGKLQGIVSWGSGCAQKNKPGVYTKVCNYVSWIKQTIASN
Method: The mixture of 10 µl of bovine pancreas trypsin (1.5 µg/ml in 1 mM HCl, 20 mM CaCl2, SIGMA), 80 µl of buffer (50mM Tris-HCl, 2 mM CaCl2 pH 8.0) and 1 µl of the compound of the present invention (in DMSO) was incubated for 20 minutes at room temperature and for 10 minutes at 37 °C. The resultant mixture was reacted with 10 µl of a substrate (5 mM sucAAPRpNA (BACHEM Feinchemikalien AG) in 50 % DMSO) for about 60 minutes at 37 °C and the absorption intensity (405 nm) was measured.
as §2

human plasma thrombin = molecular target: T5, human plasma thrombin (Homo sapiens, UniProt P00734); assay: Inhibitory activity on other serine proteases: Thrombin (Chromozyme TH); format: biochemical; conditions: for pIC50: thrombin; for fold vs chymase: thrombin IC50 compared with IC50 value of chymase
T5 construct: human plasma thrombin (1 U/ml in 10 mM Mes, pH 6.0, 0.1 M NaCl, SIGMA); purchased SIGMA; host or cells: human plasma
Method: The mixture of 10 µl of human plasma thrombin (1 U/ml in 10 mM Mes, pH 6.0, 0.1 M NaCl, SIGMA), 80 µl of buffer (0.1 M Tris-HCl, pH 8.0, 10 mM CaCl2, 0.1 M NaCl) and 1 µl of the compound of the present invention (in DMSO) was incubated for 20 minutes at room temperature and for 10 minutes at 37 °C. The resultant mixture was reacted with 10 µl of a substrate (5 mM Chromozyme TH (TosGPRpNA, Boehringer Mannheim) in H2O) for about 60 minutes at 37 °C and the absorption intensity (405 nm) was measured.
as §2

human serine plasmin = molecular target: T6, human serine plasmin (Homo sapiens, UniProt P00747); assay: Inhibitory activity on other serine proteases: Plasmin (Chromozyme PL); format: biochemical; conditions: for pIC50: plasmin; for fold vs chymase: plasmin IC50 compared with IC50 value of chymase
T6 construct: purchased SIGMA
Method: The mixture of 10 µl of human serine plasmin (0.1 mg/ml in 1 mM HCl, 20 mM CaCl2, SIGMA), 80 µl of buffer (50mM Tris-HCl, pH 7.5, 50 mM NaCl) and 1 µl of the compound of the present invention (in DMSO) was incubated for 20 minutes at room temperature and for 10 minutes at 37 °C. The resultant mixture was reacted with 10 µl of a substrate (5 mM Chromozyme PL(TosGPKpNA, Boehringer Mannheim) in H2O) for about 30 minutes at 37 °C and the absorption intensity (405 nm) was measured.
as §2

T6 sequence (P00747 581-810 limits assumed): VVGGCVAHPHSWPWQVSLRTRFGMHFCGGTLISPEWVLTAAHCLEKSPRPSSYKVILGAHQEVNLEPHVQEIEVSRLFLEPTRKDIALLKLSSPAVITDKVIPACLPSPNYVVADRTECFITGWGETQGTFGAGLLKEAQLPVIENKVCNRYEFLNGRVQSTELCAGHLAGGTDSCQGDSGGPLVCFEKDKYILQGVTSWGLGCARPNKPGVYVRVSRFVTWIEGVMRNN
T6 sequence (P00747 98-580 partner limits assumed): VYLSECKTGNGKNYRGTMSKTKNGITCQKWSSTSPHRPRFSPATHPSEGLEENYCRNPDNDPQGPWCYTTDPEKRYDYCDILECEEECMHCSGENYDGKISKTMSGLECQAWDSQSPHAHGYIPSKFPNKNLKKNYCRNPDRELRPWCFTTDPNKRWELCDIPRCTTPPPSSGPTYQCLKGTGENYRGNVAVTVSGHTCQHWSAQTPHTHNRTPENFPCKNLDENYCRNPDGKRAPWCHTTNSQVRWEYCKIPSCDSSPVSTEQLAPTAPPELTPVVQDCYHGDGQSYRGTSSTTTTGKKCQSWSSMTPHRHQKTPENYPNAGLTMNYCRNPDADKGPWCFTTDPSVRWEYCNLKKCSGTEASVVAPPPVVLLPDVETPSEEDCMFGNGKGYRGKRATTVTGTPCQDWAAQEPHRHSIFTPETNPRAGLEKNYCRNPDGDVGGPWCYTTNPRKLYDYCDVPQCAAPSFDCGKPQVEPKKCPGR

Row | pIC50 (IL-5) | pIC50 (IL-1β) | pIC50 (TNF-α) | SMILES | pIC50 (human chymase) | pIC50 (Cathepsin G) | fold vs chymase (Cathepsin G) | pIC50 [1] | fold vs chymase [1] | pIC50 (bovine pancreas trypsin) | fold vs chymase (bovine pancreas trypsin) | pIC50 (human plasma thrombin) | fold vs chymase (human plasma thrombin) | pIC50 (human serine plasmin) | fold vs chymase (human serine plasmin) | also measured
1 | 5.19 | 5.57 | 5.72 | CC(NC(=O)N1C(=O)C(Cc2ccccc2)C1Oc1ccc(C(=O)N2CCN(C)CC2)cc1)c1ccccc1 (centres unmarked) [Compound I-39, 3-Benzyl-2-[4-(4-methyl-piperazine-1-carbonyl)-phenoxy]-4-oxo-azetidine-1-carboxylic acid (1-phenyl-ethyl)-amide] | 9.34 |  |  |  |  |  |  |  |  |  |  | pIC50 (IL-4; Homo sapiens): 4.93; pIC50 (IL-6; Homo sapiens): 5.19; pIC50 (IFNγ; Homo sapiens): 4.92; pIC50 (IL-2; Homo sapiens): 5.57
2 | 4.86 | 4.95 | 5.17 | CC(NC(=O)N1C(=O)C(Cc2ccccc2)C1Oc1ccc(C(=O)N2CCN(C)CC2)cc1)c1ccccc1 (centres unmarked) [Compound I-62, 3-Benzyl-2-[4-(4-methyl-piperazine-1-carbonyl)-phenoxy]-4-oxo-azetidine-1-carboxylic acid (1-phenyl-ethyl)-amide] | 9.77 |  |  |  |  |  |  |  |  |  |  | pIC50 (IL-4; human mononuclear cells): 4.69; pIC50 (IL-6; human mononuclear cells): 5.03; pIC50 (IFNγ; human mononuclear cells): 4.77; pIC50 (IL-2; human mononuclear cells): 5.62
3 |  |  |  | CCOc1ccccc1CC1C(=O)N(C(=O)NC(c2ccccc2)c2ccccc2)C1Oc1ccc(C(=O)O)cc1 (centres unmarked) [Compound I-144, 4-[1-(Benzhydryl-carbamoyl)-3-(2-ethoxy-benzyl)-4-oxo-azetidin-2-yloxy]-benzoic acid] | 8.51 | 7.45 | 11 | < 4.00 | >30000 | 4.60 | 8000 | < 4.00 | >30000 | < 5.00 | >3000 | 
4 |  |  |  | CCOc1ccccc1C[C@@H]1C(=O)N(C(=O)NC(c2ccc(C)cc2)c2ccc(C)cc2)[C@H]1Oc1ccc(C(=O)O)cc1 [Compound I-158] | 8.09 | 6.84 | 17 | 4.60 | 3000 | 5.21 | 760 | < 4.00 | >10000 | < 4.00 | >10000 | 
